Values quoted from earlier work, collected in article PMC4862687, “GPCRs Direct Germline Development and Somatic Gonad Function in Planarians” (PLoS Biology, 2016).

Assays:
[1] = system: pituitary-gonadal axis; details: intact rats; ref [55]; cited from earlier work
Source text: (§1) NPF expression in Drosophila brain is sexually dimorphic and is believed to be centrally involved in mating behavior [52]. Also, NPF-deficient flies show a decrease in egg laying capacity, but the same effect is not observed in NPFR-1-deficient flies. […] Conversely, in intact rats, NPY has an inhibitory effect ...

[2] = system: secretion of LH and GnRH; details: injection of NPY into sex steroid-primed ovariectomized rats; ref [53],[54]; cited from earlier work
Source text: as §1

[3] = system: GnRH neuronal output; design: method as in PMID 3131748, PMID 24221756; details: mammals and teleosts; ref [61],[62]; cited from earlier work

In the case of neuropeptide Y [NPY], the “effect on reproduction / pituitary-gonadal axis” value [1] is listed as “inhibitory effect on reproduction by suppressing the pituitary-gonadal axis”, the “LH and GnRH secretion” value [2] is listed as “induces secretion of LH and GnRH” and the GnRH neuronal output [3] is listed as “positively modulates GnRH neuronal output”.
